Results taken from patent US20180116220A1, “NOVEL TRIAZOLE DERIVATIVES” (BAYER CROPSCIENCE AKTIENGESELLSCHAFT, priority 2015, published 2018).
Marks after values point to notes of the source that are not given here.

How the values were obtained:
[1] = LogP by HPLC on reversed phase columns (EEC directive 79/831 Annex V.A8); format: physicochemical; details: for chromatographic logP: reversed phase HPLC column
Procedure: [table] If more than one LogP value is available within the same method, all the values are given and separated by “+”. […] Lambda-max-values were determined using UV-spectra from 200 nm to 400 nm and the peak values of the chromatographic signals. Measurement of LogP values was performed as outlined above.

Phakopsora pachyrhizi = assay: Example S: in vivo preventive Phakopsora test (soybeans); comparison vs. known compounds; details: rate of application 5 ppm, evaluated 7 days after inoculation
Procedure: The test is evaluated 7 days after the inoculation.

Venturia inaequalis = assay: Example R: in vivo preventive Venturia test (apples); comparison vs. known compounds; details: rate of application 10 ppm, evaluated 10 days after inoculation
[2] = [a] LC-UV, acidic range, 0.1% formic acid in water and acetonitrile as eluent
[3] = [b] LC-UV, neutral range, 0.001 molar ammonium acetate solution in water and acetonitrile as eluent

| SMILES | LogP [1, 2] | LogP [1, 3] | further results |
| --- | --- | --- | --- |
| OC(Cn1cncn1)(c1ccc(F)cc1F)C1(Oc2ccc(Cl)cc2)CC1 (centres unmarked) [Example I-10, 1-[1-(4-chlorophenoxy)cyclopropyl]-1-(2,4-difluorophenyl)-2-(1H-1,2,4-triazol-1-yl)ethanol] | – | – | chromatographic logP [1, 2]: 3.48; Efficacy in % (Phakopsora pachyrhizi): 95%; Efficacy in % (Venturia inaequalis): 100% |
| O=C(c1ccc(F)cc1F)C1(Oc2ccc(Br)cc2)CC1 [IV-1, [1-(4-bromophenoxy)cyclopropyl](2,4-difluorophenyl)methanone] | – | – | chromatographic logP [1, 2]: 4.32 |
| O=C(c1ccc(F)cc1F)C1(Oc2ccc(Cl)cc2)CC1 [IV-2] | 4.22^[a] | – | – |
| O=C(c1ccc(F)cc1F)C1(Oc2ccc(I)cc2)CC1 [IV-10] | 4.54 | 4.57 | – |
| O=C(c1ccc(F)cc1F)C1(Oc2ccc(OC(F)(F)F)cc2)CC1 [IV-15] | 4.49 | 4.53 | – |
| O=C(c1ccc(F)cc1F)C1(Oc2ccc(SC(F)(F)F)cc2)CC1 [IV-16] | 4.86 | 4.92 | – |
| O=C(c1ccc(F)cc1F)C1(Oc2c(F)cccc2F)CC1 [IV-17] | 3.87^[a] | – | – |
| O=C(c1ccc(F)cc1F)C1(Oc2c(Cl)cccc2Cl)CC1 [IV-18] | 4.59^[a] | – | – |
| O=C(c1ccc(F)cc1F)C1(Oc2c(F)cccc2Cl)CC1 [IV-19] | 4.26^[a] | – | – |
| O=C(c1ccc(Cl)cc1F)C1(Oc2ccc(Cl)cc2)CC1 [IV-21] | 4.75^[a] | – | – |
| O=C(c1ccc(Cl)cc1F)C1(Oc2ccc(Cl)cc2F)CC1 [IV-22] | 4.72^[a] | – | – |
| O=C(c1ccc(F)cc1F)C1(Oc2ccc(C(F)(F)F)cc2)CC1 [IV-23] | 4.44^[a] | – | – |
| O=C(c1ccc(F)cc1F)C1(Oc2ccc(OC(F)F)cc2)CC1 [IV-27] | 3.94^[a] | – | – |

Continued, in another order:

| LogP [1, 2] | LogP [1, 3] | SMILES | further results |
| --- | --- | --- | --- |
| 4.23 | 4.24 | O=C(c1ccc(F)cc1F)C1(Oc2ccc(Cl)cc2F)CC1 [IV-3] | – |
| 4.21^[a]; 4.21^[b] | 4.21^[a]; 4.21^[b] | O=C(c1ccc(F)cc1F)C1(Oc2ccc(F)cc2Cl)CC1 [IV-4] | – |
| 3.73^[a] | – | O=C(c1ccc(F)cc1F)C1(Oc2ccccc2F)CC1 [IV-5] | – |
| 4.14 | 4.19 | O=C(c1ccc(F)cc1F)C1(Oc2ccccc2Br)CC1 [IV-6] | – |
| 4.32 | 4.36 | O=C(c1ccc(F)cc1F)C1(Oc2cccc(Br)c2)CC1 [IV-7] | – |
| 4.35 | 4.40 | O=C(c1ccc(F)cc1F)C1(Oc2ccccc2I)CC1 [IV-8] | – |
| 4.50 | 4.53 | O=C(c1ccc(F)cc1F)C1(Oc2cccc(I)c2)CC1 [IV-9] | – |
| 4.33 | 4.36 | O=C(c1ccc(F)cc1F)C1(Oc2ccc(Br)cc2F)CC1 [IV-11] | – |
| 5.06 | 5.08 | Cc1cc(I)ccc1OC1(C(=O)c2ccc(F)cc2F)CC1 [IV-12] | – |
| 3.90 | 3.92 | N#Cc1cc(I)ccc1OC1(C(=O)c2ccc(F)cc2F)CC1 [IV-13] | – |
| 4.88 | 4.87 | Cc1cc(Br)ccc1OC1(C(=O)c2ccc(F)cc2F)CC1 [IV-14] | – |
| 4.34^[a] | – | O=C(c1ccc(F)cc1F)C1(Oc2c(F)cccc2Br)CC1 [IV-20] | – |
| 4.34^[a] | – | O=C(c1ccc(F)cc1F)C1(Oc2cccc(Cl)c2)CC1 [IV-24] | – |
| 4.41^[a] | – | O=C(c1ccc(F)cc1F)C1(Oc2ccc(Cl)c(F)c2)CC1 [IV-25] | – |
| 3.99^[a] | – | O=C(c1ccc(F)cc1F)C1(Oc2ccc(Br)c(F)c2)CC1 [IV-26] | – |
| 4.21^[a] | – | O=C(c1ccc(F)cc1F)C1(Oc2cccc(Cl)c2F)CC1 [IV-28] | – |
